According to patent publication EP1147080B1 (Wyeth Holdings Corporation, priority 1999, dated 2000):
Read-outs that look alike come from different tables or passages of the source.

What was measured:
[1] = target: TNF-α converting enzyme (TACE) (Homo sapiens, UniProt P78536); test: Test procedure for measuring TACE inhibition (fluorescent peptidyl substrate); format: biochemical; conditions: for inhibition at 10 µM: % @ 10µM per footnote a, read-out: TACE IC50
MMP-13 = MMP-13 (Homo sapiens, UniProt P45452); test: MMP-13 inhibition (thiopeptide or fluorescent peptide substrate); format: biochemical; conditions: for inhibition at 10 µM / MMP13: % @ 10µM per footnote a
From the text: Alternatively, a fluorescent peptide substrate is used.

THP-1 cells = test: Human monocytic THP-1 cell differentiation assay for soluble proteins (THP soluble protein assay), LPS-stimulated, TNF-α ELISA; format: cell-based; conditions: for inhibition at 3 µM: Homo sapiens, THP-1; at 3 uM; percent change from vehicle positive control; read-out: TNFalpha at 3 uM) THP (percent change); for THP (% inhibition): Table 1, concentration not given
From the text: Mitogenic stimulation of THP-1 cells cause differentiation into macrophage like cells with concomitant secretion of tumor necrosis factor (TNF-a) and TNF receptor (TNF-R p75/80 and TNF-R p55/60) and Interleukin-8 (IL-8), among other proteins. In addition, non-stimulated THP-1 cells shed both the p75/80 and the p55/60 receptors over time. The release of membrane bound TNF-a and possibly TNF-R p75/80 and TNF-R p55/60, but not IL-8, is mediated by an enzyme called TNF-α converting enzyme or TACE.
THP-1 cells (from ATCC) are a human monocytic cell line which were obtained from the peripheral blood of a person with acute monocytic leukemia. They can be grown in culture and differentiated into macrophage like cells by stimulation with mitogens.
Each vial of cells are cultured for about two weeks prior to being used for an assay and then are used for only 4 to 6 weeks to screen compounds.
Cell exposure to DMSO was limited to 0.1 % final concentration. […] Compounds can be evaluated for their effect on basal (non-stimulated) shedding of the receptors by replacing the LPS with […] of THP-1 media. Plates are placed into an incubator set at 5% CO2 and at 37°C. After 4 hours of incubation, […] of tissue culture supernatant (TCS) is removed for use in an TNF-α ELISA. Following 24 hours of incubation, […] of TCS is removed and used for analysis in TNF-R p75/80, TNF-R p55/60 and IL-8 ELISAs.
In addition, at the 24 hours timepoint, and the cells for each treatment group are collected by resuspension in 500 µl/well of THP-1 media and transferred into a FACS tube. […] The samples are run on a Becton Dickinson FaxCaliber FLOW cytometry machine and the amount of dye taken up by each cell is measured in the high red wavelength (FL3). Only cells with compromised membranes (dead or dying) can take up PI. The percent of live cells is calculated by the number of cells not stained with PI, divided by the total number of cells in the sample. The viability values calculated for the drug treated groups were compared to the viability value calculated for the vehicle treated mitogen stimulated group ("vehicle positive control") to determine the "percent change from control". This "percent change from control" value is an indicator of drug toxicity.
The quantity of soluble TNF-α, TNF-R p75/80 and TNF-R p55/60 and IL-8 in the TCS of the THP-1 cell cultures are obtained with commercially available ELISAs from R&D Systems, by extrapolation from a standard curve generated with kit standards. The number of cells that either take up or exclude PI are measured by the FLOW cytometry machine and visualized by histograms using commercially available Cytologic software for each treatment group including all controls.
Biological variability in the magnitude of the response of THP-1 cell cultures requires that experiments be compared on the basis of percent change from "vehicle positive control" for each drug concentration. Percent change in each soluble protein evaluated from the "vehicle positive control" was calculated for each compound concentration with the following formula: % Change =(pg/ml (compound) - pg/ml (veh pos control))/(pg/ml (veh pos control) - pg/ml (veh neg control))x 100 [formula]
For the soluble protein (TNF-a, p75/80, p55/60, IL-8) studies under stimulated conditions, the mean pg/ml of duplicate wells were determined and the results expressed as percent change from "vehicle positive control". For the soluble protein (p75/80 and p55/60 receptors) studies under non-stimulated conditions, the mean pg/ml of duplicate wells were determined and the results expressed as percent change from […] utilizing the following formula: % Change =(pg/ml (compound neg control) - pg/ml (veh neg control))/(pg/ml (veh neg control))X 100 [formula]
IC50 values for each compound are calculated by non-linear regression analysis using customized software utilizing the JUMP statistical package.

MMP-9 = MMP-9 (Homo sapiens, UniProt P14780); test: MMP-9 inhibition (thiopeptide or fluorescent peptide substrate); conditions: for inhibition at 10 µM: read-out: MMP9
MMP-9, sequence (P14780 94-707): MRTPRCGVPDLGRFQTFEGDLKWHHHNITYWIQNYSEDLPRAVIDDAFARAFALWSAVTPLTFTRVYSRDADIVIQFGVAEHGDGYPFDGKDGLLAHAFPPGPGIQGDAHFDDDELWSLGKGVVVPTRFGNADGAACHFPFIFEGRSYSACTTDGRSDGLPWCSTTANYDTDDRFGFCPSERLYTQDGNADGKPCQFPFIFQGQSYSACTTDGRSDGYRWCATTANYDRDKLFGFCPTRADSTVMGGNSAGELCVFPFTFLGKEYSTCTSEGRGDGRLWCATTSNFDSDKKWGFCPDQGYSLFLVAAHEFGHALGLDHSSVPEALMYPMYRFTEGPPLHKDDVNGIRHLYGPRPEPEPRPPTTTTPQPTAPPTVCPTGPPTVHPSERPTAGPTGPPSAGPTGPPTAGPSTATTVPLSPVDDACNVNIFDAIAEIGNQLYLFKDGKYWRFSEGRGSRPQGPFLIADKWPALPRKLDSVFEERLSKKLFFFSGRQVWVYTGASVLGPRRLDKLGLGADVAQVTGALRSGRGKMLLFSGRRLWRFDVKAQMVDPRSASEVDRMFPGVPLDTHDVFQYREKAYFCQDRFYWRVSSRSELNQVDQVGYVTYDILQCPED
Description: (§1) The enzyme activity is measured by the rate of the color increase. The thiopeptide substrate is made up fresh as a 20 mM stock in 100% DMSO and the DTNB is dissolved in 100% DMSO as a 100 mM stock and stored in the dark at room temperature. Both the substrate and DTNB are diluted together to 1 mM with substrate buffer (50 mM HEPES pH 7.5, 5 mM CaCl2) before use. The stock of enzyme is diluted with buffer (50 mM HEPES, pH 7.5, 5 mM CaCl2, 0.02% Brij) to the desired final concentration.
(§2) Alternatively, a fluorescent peptide substrate is used. In this test procedure, the peptide substrate contains a fluorescent group and a quenching group. Upon cleavage of the substrate by an MMP, the fluorescence that is generated is quantitated on the fluorescence plate reader. The assay is run in HCBC assay buffer (50mM HEPES, pH 7.0, 5 mM Ca^+2, 0.02% Brij, 0.5% Cysteine), with human recombinant MMP-1, MMP-9, or MMP-13. The substrate is dissolved in methanol and stored frozen in 1 mM aliquots. For the assay, substrate and enzymes are diluted in HCBC buffer to the desired concentrations. Compounds are added to the 96 well plate containing enzyme and the reaction is started by the addition of substrate.
(§3) For either the thiopeptide or fluorescent peptide test procedures, the slope of the line is calculated and represents the reaction rate. […] The mean (x±sem) of the control rate is calculated and compared for statistical significance (p<0.05) with drug-treated rates using Dunnett's multiple comparison test.

MMP-1 = target: T1, MMP-1 (Homo sapiens, UniProt P03956); test: MMP-1 inhibition (thiopeptide or fluorescent peptide substrate); conditions: for inhibition at 10 µM: read-out: MMP1
T1 sequence (P03956 100-469): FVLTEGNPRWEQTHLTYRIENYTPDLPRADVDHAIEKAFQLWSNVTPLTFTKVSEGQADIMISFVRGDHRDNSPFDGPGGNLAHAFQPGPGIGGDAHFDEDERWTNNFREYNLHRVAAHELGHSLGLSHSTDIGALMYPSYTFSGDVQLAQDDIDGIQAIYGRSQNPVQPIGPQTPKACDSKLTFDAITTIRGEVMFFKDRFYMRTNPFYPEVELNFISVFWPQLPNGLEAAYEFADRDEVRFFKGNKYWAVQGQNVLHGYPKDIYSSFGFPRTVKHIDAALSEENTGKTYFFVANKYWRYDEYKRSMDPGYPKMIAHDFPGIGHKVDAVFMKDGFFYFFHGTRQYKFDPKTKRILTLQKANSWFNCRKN
Description: as §1, §2, §3

[2] = second table, IC50 (nM) per footnote a

TNF-α converting enzyme (TACE), sequence (P78536 215-824): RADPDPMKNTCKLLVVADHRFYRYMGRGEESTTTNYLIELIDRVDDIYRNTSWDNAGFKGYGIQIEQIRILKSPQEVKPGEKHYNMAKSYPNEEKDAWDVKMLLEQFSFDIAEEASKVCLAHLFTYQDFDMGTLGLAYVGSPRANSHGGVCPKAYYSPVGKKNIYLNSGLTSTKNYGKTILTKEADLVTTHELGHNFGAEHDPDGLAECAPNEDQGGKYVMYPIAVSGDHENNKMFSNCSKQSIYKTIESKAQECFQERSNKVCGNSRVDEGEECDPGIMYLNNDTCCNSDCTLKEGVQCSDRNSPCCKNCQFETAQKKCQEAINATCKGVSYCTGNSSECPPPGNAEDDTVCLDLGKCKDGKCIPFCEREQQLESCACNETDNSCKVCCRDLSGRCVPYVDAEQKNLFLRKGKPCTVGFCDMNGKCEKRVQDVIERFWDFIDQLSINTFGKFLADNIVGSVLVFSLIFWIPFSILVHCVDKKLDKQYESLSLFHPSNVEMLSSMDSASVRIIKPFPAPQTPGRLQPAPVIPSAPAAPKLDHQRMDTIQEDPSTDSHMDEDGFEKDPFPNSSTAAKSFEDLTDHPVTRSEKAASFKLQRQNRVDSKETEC

| Structure (SMILES) | IC50 [1, 2] | inhibition at 10 µM (MMP-13; read-out: MMP13) | inhibition at 3 µM (THP-1 cells) | inhibition at 10 µM (MMP-9) | inhibition at 10 µM (MMP-1) | IC50 (MMP-9) | other results |
| --- | --- | --- | --- | --- | --- | --- | --- |
| CC#CCOc1ccc(SC(C(=O)NO)C(C)C)cc1 (centres unmarked) [Example 107, 2-{[4-(2-Butynyloxy)phenyl]sulfanyl}-2-isopropyl-N-hydroxyacetamide] | 157 nM | 59.4% | -13% | 56.8% | 2.8% |  |  |
| CC#CCOc1ccc([S@+]([O-])[C@@H](CCCCCC)C(=O)NO)cc1 [Example 7, (S)-2-[(R)-[4-(2-Butynyloxy)phenylsulfinyl)]-N-hydroxyoctanamide] |  |  |  |  |  | 1500 nM | IC50 ([1]; Table 1): 4.3 nM; IC50 (MMP-13; Table 1, read-out: MMP13 IC50): 900 nM; THP (% inhibition) (THP-1 cells): 67%; IC50 (MMP-1): 3000 nM |
| CC#CCOc1ccc(S(=O)(=O)C(CCc2ccc(OCCN3CCCCC3)cc2)C(=O)NO)cc1 (centres unmarked) [Example 71] |  |  | 11% |  |  | 2510 nM | IC50 (MMP-13; IC50, read-out: MMP13): 894 nM; IC50 (MMP-1): 10000 nM |
| CC#CCOc1ccc([S+]([O-])C(C(=O)NO)C(C)C)cc1 (centres unmarked) [Example 108, R-2-{[4-(2-butynylaxy)phenyl]sulfinyl}-2-isopropyl-N-hydroxyacetamide] |  |  |  |  |  | 399 nM | IC50 (MMP-1): 6480 nM |
| CC#CCOc1ccc([S+]([O-])C(C(=O)NO)C2CCCCC2)cc1 (centres unmarked) [Example 74, 2-{[4-(2-butynyloxy)phenyl]sulfinyl}-2-cyclohexyl-N-hydroxyacetamide] | 52 nM |  | 31% |  |  | 336 nM | IC50 (MMP-13; IC50, read-out: MMP13): 93.5 nM; IC50 (MMP-1): 1500 nM |
| CC#CCOc1ccc(SC(C(=O)NO)c2ccc(Cl)cc2)cc1 (centres unmarked) [Example 80, 2-{[4-(2-butynyloxy)phenyl]sulfanyl}-2-(4-chlorophenyl)-N-hydroxyacetamide] | 102 nM | 48.8% | 4% | 10.9% | 0% |  |  |
| CC#CCOc1ccc(S(=O)(=O)C(CCCCCC#N)C(=O)NO)cc1 (centres unmarked) [Example 72, 2-{[4-(2-butynyloxy)phenyl]sulfonyl}-7-cyano-N-hydroxy heptanamide] | 14.2 nM |  | 54% |  | 46.2% | 1360 nM | IC50 (MMP-13; IC50, read-out: MMP13): 341 nM |
| CC#CCOc1ccc([S+]([O-])[C@@H](C(=O)NO)c2ccc(OC)cc2)cc1 (single isomer, unassigned) [Example 77] |  |  |  |  |  |  | MMP9 (MMP-9): 45.40%; MMP1 (MMP-1; % @ 10µM per footnote a): 17.50% |
| CC#CCOc1ccc(S(=O)(=O)C(C)(Cc2ccc(OCCN3CCCCC3)cc2)C(=O)NO)cc1 (centres unmarked) [Example 1, 2-(4-But-2-ynyloxy-benzenesulfonyl)-N-hydroxy-2-methyl-3-[4-(2-piperidin-1-yl-ethoxy)-phenyl]-propionamide] |  |  |  |  |  | 180 nM | IC50 ([1]; Table 1): 191 nM; IC50 (MMP-13; Table 1, read-out: MMP13 IC50): 200 nM; THP (% inhibition) (THP-1 cells): 25%; IC50 (MMP-1): 2000 nM |
| CC#CCOc1ccc([S+]([O-])C(C(=O)NO)c2ccc(F)cc2)cc1 (centres unmarked) [Example 96] |  |  |  |  |  |  | MMP13 (MMP-13): 53.40%; MMP9 (MMP-9; % @ 10µM per footnote a): 0%; MMP1 (MMP-1; % @ 10µM per footnote a): 18.40% |
| CC#CCOc1ccc(S(=O)(=O)C(C)(Cc2ccc(-c3ccccc3)cc2)C(=O)NO)cc1 (centres unmarked) [Example 2, 3-Biphenyl-4-yl-2-(4-But-2-ynyloxy-phenylsulfonyl)-N-hydroxy-2-methyl-propionamide] |  |  |  |  |  | 207 nM | IC50 ([1]; Table 1): 207 nM; IC50 (MMP-13; Table 1, read-out: MMP13 IC50): 597 nM; THP (% inhibition) (THP-1 cells): 5%; IC50 (MMP-1): 2200 nM |
| CC#CCOc1ccc([S+]([O-])[C@@H](C(=O)NO)c2ccccc2)cc1 (some centres unmarked) [Example 112, R-2-{[4-(2-butynyloxy)phenyl]sulfinyl}-2-phenyl-N-hydroxyacetamide] | 28 nM | 23.6% | 15% | 8.2% | 9.9% |  |  |
| CC#CCOc1ccc(SC(C(=O)NO)c2ccc(F)cc2)cc1 (centres unmarked) [Example 95] |  | 26% | -7% | 5.7% | 9% |  |  |
| CC#CCOc1ccc(S(=O)(=O)C(C(=O)NO)c2ccc(OC)cc2)cc1 (centres unmarked) [Example 79, 2-{[4-(2-butynyloxy)phenyl]sulfonyl}-N-hydroxy-2-(4-methoxyphenyl) acetamide] | 48.1 nM | 56.8% |  | 27.3% | 23.3% |  |  |
| CC#CCOc1ccc([S+]([O-])[C@H](C(=O)NO)c2ccc(OC)cc2)cc1 (single isomer, unassigned) [Example 78] |  | 54.5% | 13% | 32.7% | 5.9% |  |  |
| CC#CCOc1ccc(S(=O)(=O)C(C(=O)NO)C2CCCCC2)cc1 (centres unmarked) [Example 75, 2-{[4-(2-butynyloxy)phenyl]sulfonyl}-2-cyclohexyl-N-hydroxyacetamide] |  |  | 39% | 68.2% | 34.6% |  | IC50 (MMP-13; IC50, read-out: MMP13): 708 nM |
| CC#CCOc1ccc(S(=O)(=O)C(C(=O)NO)c2ccc(-c3cccs3)cc2)cc1 (centres unmarked) [Example 91, 2-{[4-(2-butynyloxy)phenyl]sulfonyl}-N-hydroxy-2-[4-(2-thienyl)phenyl]acetamide] |  | 35% | 2% |  | 10% |  | inhibition at 10 µM [1]: 48% |
| CC#CCOc1ccc([S+]([O-])C(C(=O)NO)c2cccc3ccccc23)cc1 (centres unmarked) [Example 93, 2-{[4-(2-Butynyloxy)phenyl]sulfinyl}-N-hydroxy-2-(1-naphthyl)acetamide] |  | 17% | -1% |  | 7% |  | inhibition at 10 µM [1]: 15.6% |
| CC#CCOc1ccc([S+]([O-])C(C(=O)NO)c2ccccc2)cc1 (single isomer, unassigned) [Example 113, S-2-{[4-(2-butynyloxy)phenyl]sulfinyl}-2-phenyl-N-hydroxyacetamide] |  |  |  |  |  |  | MMP13 (MMP-13): 59%; MMP9 (MMP-9): 25.70%; MMP1 (MMP-1): 6.20% |
| CC#CCOc1ccc(SC(C(=O)NO)c2ccc(OC)cc2)cc1 (centres unmarked) [Example 76, 2-{[4-(2-butynyloxy)phenyl]sulfanyl}-N-hydroxy-2-(4-methoxyphenyl) acetamide] |  | 26.8% | 15% | 21.6% | 3% |  |  |
| CC#CCOc1ccc([S+]([O-])[C@@H](C(=O)NO)c2cccc(Br)c2)cc1 (single isomer, unassigned) [Example 104] | 63 nM | 54% | 4% |  | 6% |  |  |
